Laboratory results taken from PubChem BioAssay (NCI).
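Step 1: Grow cells in 96-well plates. Step 2: Expose to compound for 48 hours at 5 concentrations. Step 3: Interpolate endpoints linearly; if unreached, use highest concentration. GI50 marks 50% less growth. The concentration for full growth arrest is given as TGI.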

How the values were obtained:
Assay in all cases: NCI anticancer screen, dose series, 48 h
786-0 renal = system: 786-0 renal
A498 renal = system: A498 renal
A549 NSCLC = system: A549 NSCLC
ACHN renal = system: ACHN renal
BT-549 breast = system: BT-549 breast
CAKI-1 renal = system: CAKI-1 renal
CCRF-CEM leukemia = system: CCRF-CEM leukemia
COLO 205 colon = system: COLO 205 colon
DU-145 prostate = system: DU-145 prostate
EKVX NSCLC = system: EKVX NSCLC
HCC-2998 colon = system: HCC-2998 colon
HCT-116 colon = system: HCT-116 colon
HCT-15 colon = system: HCT-15 colon
HL-60(TB) leukemia = system: HL-60(TB) leukemia
HOP-62 NSCLC = system: HOP-62 NSCLC
HOP-92 NSCLC = system: HOP-92 NSCLC
HS 578T breast = system: HS 578T breast
HT29 colon = system: HT29 colon
IGROV1 ovarian = system: IGROV1 ovarian
K-562 leukemia = system: K-562 leukemia
KM12 colon = system: KM12 colon
LOX IMVI melanoma = system: LOX IMVI melanoma
M14 melanoma = system: M14 melanoma
MALME-3M melanoma = system: MALME-3M melanoma
MCF7 breast = system: MCF7 breast
MDA-MB-231 breast = system: MDA-MB-231 breast
MDA-MB-435 = system: MDA-MB-435
MDA-MB-468 breast = system: MDA-MB-468 breast
MOLT-4 leukemia = system: MOLT-4 leukemia
NCI-H226 lung = system: NCI-H226 lung
NCI-H23 lung = system: NCI-H23 lung
NCI-H460 lung = system: NCI-H460 lung
NCI-H522 lung = system: NCI-H522 lung
NCI/ADR-RES ovarian = system: NCI/ADR-RES ovarian
OVCAR-3 ovarian = system: OVCAR-3 ovarian
OVCAR-4 ovarian = system: OVCAR-4 ovarian
OVCAR-5 ovarian = system: OVCAR-5 ovarian
OVCAR-8 ovarian = system: OVCAR-8 ovarian
PC-3 prostate = system: PC-3 prostate
RPMI-8226 leukemia = system: RPMI-8226 leukemia
RXF 393 renal = system: RXF 393 renal
SF-268 CNS = system: SF-268 CNS
SF-295 CNS = system: SF-295 CNS
SF-539 CNS = system: SF-539 CNS
SK-MEL-2 melanoma = system: SK-MEL-2 melanoma
SK-MEL-28 melanoma = system: SK-MEL-28 melanoma
SK-MEL-5 melanoma = system: SK-MEL-5 melanoma
SK-OV-3 ovarian = system: SK-OV-3 ovarian
SN12C renal = system: SN12C renal
SNB-19 CNS = system: SNB-19 CNS
SNB-75 CNS = system: SNB-75 CNS
SR leukemia = system: SR leukemia
SW-620 colon = system: SW-620 colon
T-47D breast = system: T-47D breast
TK-10 renal = system: TK-10 renal
U251 CNS = system: U251 CNS
UACC-257 melanoma = system: UACC-257 melanoma
UACC-62 melanoma = system: UACC-62 melanoma
UO-31 renal = system: UO-31 renal

O=C(CNc1nc(-c2ccccc2)cs1)Nc1ccc(Cl)cc1
GI50 (786-0 renal): 217 nM | TGI (786-0 renal): 469 nM | GI50 (A498 renal): 2150 nM | TGI (A498 renal): 5020 nM | GI50 (A549 NSCLC): 1070 nM | TGI (A549 NSCLC): 2480 nM | GI50 (ACHN renal): 385 nM | TGI (ACHN renal): 846 nM | GI50 (BT-549 breast): 216 nM | TGI (BT-549 breast): 643 nM | GI50 (CAKI-1 renal): 466 nM | TGI (CAKI-1 renal): 1890 nM | GI50 (CCRF-CEM leukemia): 243 nM | TGI (CCRF-CEM leukemia): > 21500 nM | GI50 (COLO 205 colon): 1580 nM | TGI (COLO 205 colon): 3230 nM | GI50 (DU-145 prostate): 1540 nM | TGI (DU-145 prostate): 2920 nM | GI50 (EKVX NSCLC): 530 nM | TGI (EKVX NSCLC): 1200 nM | GI50 (HCC-2998 colon): 835 nM | TGI (HCC-2998 colon): 2180 nM | GI50 (HCT-116 colon): 196 nM | TGI (HCT-116 colon): 796 nM | GI50 (HCT-15 colon): 315 nM | TGI (HCT-15 colon): 800 nM | GI50 (HL-60(TB) leukemia): 304 nM | TGI (HL-60(TB) leukemia): 2260 nM | GI50 (HOP-62 NSCLC): 1350 nM | TGI (HOP-62 NSCLC): 2730 nM | GI50 (HOP-92 NSCLC): 461 nM | TGI (HOP-92 NSCLC): 2130 nM | GI50 (HS 578T breast): 1270 nM | TGI (HS 578T breast): > 91300 nM | GI50 (HT29 colon): 348 nM | TGI (HT29 colon): 1320 nM | GI50 (IGROV1 ovarian): 554 nM | TGI (IGROV1 ovarian): 1750 nM | GI50 (K-562 leukemia): 224 nM | TGI (K-562 leukemia): > 100000 nM | GI50 (KM12 colon): 828 nM | TGI (KM12 colon): 2530 nM | GI50 (LOX IMVI melanoma): 167 nM | TGI (LOX IMVI melanoma): 616 nM | GI50 (M14 melanoma): 341 nM | TGI (M14 melanoma): 1680 nM | GI50 (MALME-3M melanoma): 507 nM | TGI (MALME-3M melanoma): 1200 nM | GI50 (MCF7 breast): 323 nM | TGI (MCF7 breast): 860 nM | GI50 (MDA-MB-231 breast): 480 nM | TGI (MDA-MB-231 breast): 1390 nM | GI50 (MDA-MB-435): 559 nM | TGI (MDA-MB-435): 2100 nM | GI50 (MDA-MB-468 breast): 394 nM | TGI (MDA-MB-468 breast): 877 nM | GI50 (MOLT-4 leukemia): 364 nM | GI50 (NCI-H226 lung): 651 nM | TGI (NCI-H226 lung): 2940 nM | GI50 (NCI-H23 lung): 407 nM | TGI (NCI-H23 lung): 1020 nM | GI50 (NCI-H460 lung): 936 nM | TGI (NCI-H460 lung): 3120 nM | GI50 (NCI-H522 lung): 152 nM | TGI (NCI-H522 lung): 305 nM | GI50 (NCI/ADR-RES ovarian): 213 nM | TGI (NCI/ADR-RES ovarian): 533 nM | GI50 (OVCAR-3 ovarian): 552 nM | TGI (OVCAR-3 ovarian): 1310 nM | GI50 (OVCAR-4 ovarian): 1340 nM | TGI (OVCAR-4 ovarian): 3170 nM | GI50 (OVCAR-5 ovarian): 1030 nM | TGI (OVCAR-5 ovarian): 2410 nM | GI50 (OVCAR-8 ovarian): 989 nM | GI50 (PC-3 prostate): 519 nM | TGI (PC-3 prostate): 2610 nM | GI50 (RPMI-8226 leukemia): 331 nM | TGI (RPMI-8226 leukemia): 2720 nM | GI50 (RXF 393 renal): 514 nM | TGI (RXF 393 renal): 1170 nM | GI50 (SF-268 CNS): 1880 nM | TGI (SF-268 CNS): 10100 nM | GI50 (SF-295 CNS): 708 nM | TGI (SF-295 CNS): 2150 nM | GI50 (SF-539 CNS): 518 nM | TGI (SF-539 CNS): 971 nM | GI50 (SK-MEL-2 melanoma): 646 nM | TGI (SK-MEL-2 melanoma): 2070 nM | GI50 (SK-MEL-28 melanoma): 1080 nM | TGI (SK-MEL-28 melanoma): 2430 nM | GI50 (SK-MEL-5 melanoma): 440 nM | TGI (SK-MEL-5 melanoma): 851 nM | GI50 (SK-OV-3 ovarian): 1390 nM | TGI (SK-OV-3 ovarian): 4540 nM | GI50 (SN12C renal): 465 nM | TGI (SN12C renal): 1230 nM | GI50 (SNB-19 CNS): 777 nM | TGI (SNB-19 CNS): 2130 nM | GI50 (SNB-75 CNS): 628 nM | TGI (SNB-75 CNS): 5900 nM | GI50 (SR leukemia): 25500 nM | TGI (SR leukemia): > 100000 nM | GI50 (SW-620 colon): 683 nM | TGI (SW-620 colon): 1910 nM | GI50 (T-47D breast): 337 nM | TGI (T-47D breast): 2440 nM | GI50 (TK-10 renal): 1070 nM | TGI (TK-10 renal): 2520 nM | GI50 (U251 CNS): 339 nM | TGI (U251 CNS): 813 nM | GI50 (UACC-257 melanoma): 1060 nM | TGI (UACC-257 melanoma): 3290 nM | GI50 (UACC-62 melanoma): 496 nM | TGI (UACC-62 melanoma): 1640 nM | GI50 (UO-31 renal): 654 nM | TGI (UO-31 renal): 2030 nM
